From patent US20170073337A1, “DIHYDROTHIAZINE AND DIHYDROOXAZINE DERIVATIVES HAVING BACE1 INHIBITORY ACTIVITY” (Shionogi & Co., Ltd., priority 2014, published 2017)

Tests used:
CYP2C9 = biological target: T1, CYP2C9 (Homo sapiens, UniProt P11712); test: CYP inhibition test (CYP2C9); assay type: in vitro ADME; settings: pooled human liver microsomes; tolbutamide methyl-hydroxylation
T1 construct: The commercially available pooled human liver microsomes are used as an enzyme resource; from tissue; host or cells: pooled human liver microsomes
T1 sequence (P11712 whole entry): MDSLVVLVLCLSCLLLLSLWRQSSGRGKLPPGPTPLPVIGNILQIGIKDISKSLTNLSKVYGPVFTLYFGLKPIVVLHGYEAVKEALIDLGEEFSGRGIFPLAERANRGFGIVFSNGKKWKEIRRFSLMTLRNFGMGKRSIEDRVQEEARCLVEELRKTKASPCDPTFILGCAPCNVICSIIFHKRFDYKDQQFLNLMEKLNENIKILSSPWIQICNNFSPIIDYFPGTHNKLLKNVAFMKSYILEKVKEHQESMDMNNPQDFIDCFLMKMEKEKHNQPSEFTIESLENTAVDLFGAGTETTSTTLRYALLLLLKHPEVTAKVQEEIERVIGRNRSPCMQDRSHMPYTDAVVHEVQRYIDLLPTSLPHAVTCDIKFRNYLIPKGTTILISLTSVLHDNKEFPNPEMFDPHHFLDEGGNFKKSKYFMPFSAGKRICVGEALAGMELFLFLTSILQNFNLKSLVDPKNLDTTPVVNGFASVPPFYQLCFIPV
In short: (§1)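 Pooled human liver microsomes (0.2 mg protein/mL) were incubated at 37 °C with NADPH, compound at 1, 5, 10, 20 μmol/L and marker substrates: tolbutamide 100 μmol/L (2C9), S-mephenytoin 50 μmol/L (2C19), dextromethorphan 5 μmol/L (2D6), terfenadine 1 μmol/L (3A4). Metabolites were measured by LC/MS/MS; IC50 came from logistic fitting against DMSO control.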

CYP2D6 = biological target: T2, CYP2D6 (Homo sapiens, UniProt P10635); test: CYP inhibition test (CYP2D6); assay type: in vitro ADME; settings: pooled human liver microsomes; dextromethorphan O-demethylation
T2 construct: The commercially available pooled human liver microsomes are used as an enzyme resource; from tissue; host or cells: pooled human liver microsomes
T2 sequence (P10635 whole entry): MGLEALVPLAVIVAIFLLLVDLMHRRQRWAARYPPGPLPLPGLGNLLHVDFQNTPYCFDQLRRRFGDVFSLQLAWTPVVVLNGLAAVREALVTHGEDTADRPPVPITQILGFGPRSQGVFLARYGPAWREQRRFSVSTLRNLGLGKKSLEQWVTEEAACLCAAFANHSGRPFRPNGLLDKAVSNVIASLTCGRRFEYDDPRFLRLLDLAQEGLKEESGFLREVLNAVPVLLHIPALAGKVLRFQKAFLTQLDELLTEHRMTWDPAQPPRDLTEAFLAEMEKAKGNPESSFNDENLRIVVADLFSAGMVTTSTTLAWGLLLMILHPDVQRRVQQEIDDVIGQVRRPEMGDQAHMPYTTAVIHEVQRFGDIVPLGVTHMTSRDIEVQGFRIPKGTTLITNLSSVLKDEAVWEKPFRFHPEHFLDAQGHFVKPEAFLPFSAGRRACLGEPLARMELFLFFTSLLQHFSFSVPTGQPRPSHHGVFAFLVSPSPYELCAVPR
In short: as §1

[1] = biological target: T3, P-gp (MDR1 expressing LLC-PK1 cells) (Homo sapiens, UniProt P08183); test: P-gp substrate test; assay type: in vitro ADME; settings: net flux = Efflux Ratio in MDR1 expressing cells / Efflux Ratio in parent LLC-PK1 cells
T3 construct: host or cells: LLC-PK1
T3 sequence (P08183 whole entry): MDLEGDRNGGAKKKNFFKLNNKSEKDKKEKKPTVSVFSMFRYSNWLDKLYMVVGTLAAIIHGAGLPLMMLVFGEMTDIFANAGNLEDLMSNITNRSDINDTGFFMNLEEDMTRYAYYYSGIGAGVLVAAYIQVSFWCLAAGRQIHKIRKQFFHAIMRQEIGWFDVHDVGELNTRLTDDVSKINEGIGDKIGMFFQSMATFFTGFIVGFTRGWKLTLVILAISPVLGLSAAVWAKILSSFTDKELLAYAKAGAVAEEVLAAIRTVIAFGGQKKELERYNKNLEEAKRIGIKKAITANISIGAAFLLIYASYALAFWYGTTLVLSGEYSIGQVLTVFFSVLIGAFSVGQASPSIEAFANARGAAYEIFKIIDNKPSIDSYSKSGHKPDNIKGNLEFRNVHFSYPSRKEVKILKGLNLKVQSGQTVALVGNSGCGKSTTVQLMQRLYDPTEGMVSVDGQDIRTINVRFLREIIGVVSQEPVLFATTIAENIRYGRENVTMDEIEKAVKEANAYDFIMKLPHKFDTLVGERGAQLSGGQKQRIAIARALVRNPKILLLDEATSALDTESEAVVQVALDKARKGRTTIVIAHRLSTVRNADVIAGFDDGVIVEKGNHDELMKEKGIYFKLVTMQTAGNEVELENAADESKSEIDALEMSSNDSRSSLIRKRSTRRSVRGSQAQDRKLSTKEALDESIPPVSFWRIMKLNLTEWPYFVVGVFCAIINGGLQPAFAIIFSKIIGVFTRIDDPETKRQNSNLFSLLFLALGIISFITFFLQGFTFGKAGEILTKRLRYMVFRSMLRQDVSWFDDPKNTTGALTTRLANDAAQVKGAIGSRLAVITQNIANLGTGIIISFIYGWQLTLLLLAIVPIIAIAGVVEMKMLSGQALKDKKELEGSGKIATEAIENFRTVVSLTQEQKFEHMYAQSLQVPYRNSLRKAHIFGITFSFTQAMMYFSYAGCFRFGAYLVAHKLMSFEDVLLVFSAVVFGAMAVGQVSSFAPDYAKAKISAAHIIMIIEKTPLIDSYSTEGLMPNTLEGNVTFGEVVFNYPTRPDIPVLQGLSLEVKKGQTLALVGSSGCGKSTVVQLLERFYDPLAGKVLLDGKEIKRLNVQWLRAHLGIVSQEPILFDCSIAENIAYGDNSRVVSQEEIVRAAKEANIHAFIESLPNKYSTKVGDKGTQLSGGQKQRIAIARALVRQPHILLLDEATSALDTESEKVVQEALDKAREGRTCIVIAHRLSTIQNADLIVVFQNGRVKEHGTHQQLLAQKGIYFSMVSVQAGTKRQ
Experimental: • 1. Cell line: • a. MDR/LLC-PK1 (Becton Dickinson) • b. LLC-PK1 (Becton Dickinson) • 2. Reference substrates: • a Digoxin (2 μM)
1. […] After incubation for designed time at 37° C., an aliquot (50 μL) of transport buffer in the donor and receiver side were collected. Assay was performed by duplicate or triplicate. 3. Reference substrate and the present invention in the aliquot was quantified by LC/MS/MS.
Pc(cm/sec)−Permeated amount (pmol)/area of cell membrane (cm2)/initial concentration (nM)/incubation time (sec)
The efflux ratio was calculated using the following equation:
Efflux Ratio=Basolateral-to-Apical Pe/Apical-to-Basolateral Pe
The net flux was calculated using the following equation
Net flux=Efflux Ratio in MDK1 expressing cells/Efflux Ratio in parent cells

[2] = tested on: Aβ production in neuroblastoma SH-SY5Y cells (SH/APPwt); test: β-amyloid (Aβ) production inhibitory effect in cell: 384-well; assay type: cell-based; settings: Homo sapiens, Assay format 384-well
In short: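 SH-SY5Y cells overexpressing human wild-type APP were seeded together with test compound (final DMSO 1%) and cultured for 21 h. Aβ1-40 in the supernatant was measured by HTRF after overnight incubation at 4 °C in the dark, reading fluorescence at 620 and 665 nm.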

Recombinant human BACE1 = biological target: T4, Recombinant human BACE1 (Homo sapiens, UniProt P56817); test: Assay of BACE1 inhibitory activity: 384-well; assay type: biochemical; settings: Assay format 384-well
T4 construct: purchased R&D Systems
T4 sequence (P56817 46-501): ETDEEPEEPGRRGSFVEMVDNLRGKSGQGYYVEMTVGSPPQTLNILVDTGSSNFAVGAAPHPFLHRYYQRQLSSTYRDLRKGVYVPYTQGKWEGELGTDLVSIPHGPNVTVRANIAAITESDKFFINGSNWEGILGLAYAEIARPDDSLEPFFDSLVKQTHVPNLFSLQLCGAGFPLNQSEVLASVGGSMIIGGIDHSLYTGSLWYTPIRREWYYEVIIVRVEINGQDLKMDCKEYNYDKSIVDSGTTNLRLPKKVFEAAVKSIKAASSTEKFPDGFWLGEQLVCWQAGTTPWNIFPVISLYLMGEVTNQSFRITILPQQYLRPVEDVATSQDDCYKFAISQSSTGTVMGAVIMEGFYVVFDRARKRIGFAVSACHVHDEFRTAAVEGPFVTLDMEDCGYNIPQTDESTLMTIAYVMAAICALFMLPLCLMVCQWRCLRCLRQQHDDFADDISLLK
In short: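 Recombinant human BACE1 was incubated 2 h at 25 °C with a biotin/Eu-cryptate-labelled peptide substrate and compound in DMSO. Streptavidin-XL665 in pH 7.0 phosphate buffer containing 0.8 mol/L KF was then added for 30 min at 25 °C for HTRF detection.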

## C[C@]1(c2cc(NC(=O)c3ccc(F)cn3)ccc2F)N=C(N)O[C@H](CF)[C@@H]1OCC(F)(F)F [Compound I-11]
CYP2C9
  IC50: ≥ 10000 nM
CYP2D6
  IC50: ≥ 10000 nM

## COc1cnc(C(=O)Nc2ccc(F)c([C@@]3(C)N=C(N)O[C@H]([C@H](C)F)[C@@H]3F)c2)cn1 [Compound I-17]
[1]
  ER ratio (Cell: MDR1/LLC-PK1): 0.73
CYP2C9
  IC50: ≥ 20000 nM

## CO[C@H]1[C@@H](CF)OC(N)=N[C@]1(C)c1cc(NC(=O)c2ccc(C#N)cn2)ccc1Cl [Compound I-18]
CYP2C9
  IC50: ≥ 20000 nM
CYP2D6
  IC50: ≥ 20000 nM

## CO[C@H]1[C@@H](CF)OC(N)=N[C@]1(C)c1cc(NC(=O)c2ccc(F)cn2)ccc1Cl [Compound I-20]
CYP2C9
  IC50: ≥ 20000 nM
CYP2D6
  IC50: ≥ 20000 nM

## CO[C@H]1[C@@H](CF)OC(N)=N[C@]1(C)c1cc(NC(=O)c2cnc(OCF)cn2)ccc1F [Compound I-24]
CYP2C9
  IC50: ≥ 20000 nM
CYP2D6
  IC50: ≥ 10000 nM

## CO[C@H]1[C@@H](CF)OC(N)=N[C@]1(C)c1cc(NC(=O)c2ccc(F)cn2)ccc1F [Compound I-25]
CYP2C9
  IC50: ≥ 20000 nM
CYP2D6
  IC50: ≥ 20000 nM

## C[C@@H]1[C@@H](C(F)(F)F)OC(N)=N[C@]1(C)c1cc(NC(=O)c2ccc(C#N)cn2)ccc1F [Compound I-27]
CYP2C9
  IC50: ≥ 20000 nM
CYP2D6
  IC50: ≥ 20000 nM

## C[C@H]1[C@H](C(F)(F)F)OC(N)=N[C@]1(C)c1cc(NC(=O)c2ccc(C#N)cn2)ccc1F [Compound I-29]
CYP2C9
  IC50: ≥ 20000 nM
CYP2D6
  IC50: ≥ 20000 nM

## Cc1nc(C(=O)Nc2ccc(F)c([C@@]3(C)N=C(N)O[C@H](C(F)(F)F)[C@@H]3C)c2)co1 [Compound I-32]
CYP2C9
  IC50: ≥ 20000 nM
CYP2D6
  IC50: ≥ 10000 nM

## C[C@H]1[C@@H](C(F)F)OC(N)=N[C@]1(C)c1cc(NC(=O)c2cnc(OCF)cn2)ccc1F [Compound I-33]
[1]
  ER ratio (Cell: MDR1/LLC-PK1): 3.2
CYP2C9
  IC50: ≥ 20000 nM

## C[C@]1(c2cc(NC(=O)c3ccc(F)cn3)ccc2F)N=C(N)OCC12CC(F)(F)C2 [Compound I-45]
CYP2C9
  IC50: ≥ 20000 nM
CYP2D6
  IC50: ≥ 20000 nM

## C[C@H]1SC(N)=N[C@](C)(c2cc(NC(=O)c3coc(CF)n3)ccc2F)[C@H]1F [Compound I-49]
[2]
  IC50: 0.025 nM
Recombinant human BACE1
  IC50: 3.13 nM
CYP2C9
  IC50: ≥ 10000 nM
CYP2D6
  IC50: ≥ 20000 nM

## COc1ccc(C(=O)Nc2ccc(F)c([C@@]3(C)N=C(N)S[C@H](C)[C@@H]3F)c2)nc1 [Compound I-50]
[1]
  ER ratio (Cell: MDR1/LLC-PK1): 1.1
[2]
  IC50: 0.39 nM
Recombinant human BACE1
  IC50: 7.77 nM

## C[C@H]1SC(N)=N[C@](C)(c2cc(NC(=O)c3ccc(OCF)cn3)ccc2F)[C@H]1F [Compound I-51]
[1]
  ER ratio (Cell: MDR1/LLC-PK1): 0.56
[2]
  IC50: 0.41 nM
Recombinant human BACE1
  IC50: 17.5 nM

## C[C@H]1SC(N)=N[C@](C)(c2cc(NC(=O)c3ncc(OCC(F)(F)F)cn3)ccc2F)[C@H]1F [Compound I-53]
[2]
  IC50: 0.89 nM
Recombinant human BACE1
  IC50: 14.5 nM
CYP2D6
  IC50: ≥ 20000 nM

## COc1cnc(C(=O)Nc2ccc(F)c([C@@]3(C)N=C(N)SCC34CC(F)(F)C4)c2)cn1 [Compound I-55]
[1]
  ER ratio (Cell: MDR1/LLC-PK1): 0.9
[2]
  IC50: 0.3 nM
Recombinant human BACE1
  IC50: 19.8 nM
CYP2C9
  IC50: ≥ 20000 nM

## C[C@]1(c2cc(NC(=O)c3ccc(C#N)cn3)ccc2F)N=C(N)SCC12CC(F)(F)C2 [Compound I-59]
[1]
  ER ratio (Cell: MDR1/LLC-PK1): 1.2
[2]
  IC50: 0.058 nM
Recombinant human BACE1
  IC50: 10.9 nM
CYP2C9
  IC50: ≥ 20000 nM

## C[C@H]1SC(N)=N[C@](C)(c2cc(NC(=O)c3ccc(F)cn3)ccc2F)C12CC(F)(F)C2 [Compound I-63]
[2]
  IC50: 5.4 nM
Recombinant human BACE1
  IC50: 11.9 nM
CYP2C9
  IC50: ≥ 10000 nM

## CC[C@H]1SC(N)=N[C@](C)(c2cc(NC(=O)c3cnc(OCF)cn3)ccc2F)[C@H]1F [Compound I-66]
[1]
  ER ratio (Cell: MDR1/LLC-PK1): 0.6
[2]
  IC50: 0.13 nM
Recombinant human BACE1
  IC50: 5.62 nM

## CC[C@H]1SC(N)=N[C@](C)(c2cc(NC(=O)c3ccc(OCF)cn3)ccc2F)[C@H]1F [Compound I-67]
[1]
  ER ratio (Cell: MDR1/LLC-PK1): 0.9
[2]
  IC50: 0.56 nM
Recombinant human BACE1
  IC50: 5.47 nM

## CC[C@H]1SC(N)=N[C@](C)(c2cc(NC(=O)c3ccc(F)cn3)ccc2F)[C@H]1F [Compound I-70]
[2]
  IC50: 2 nM
Recombinant human BACE1
  IC50: 10.6 nM
CYP2D6
  IC50: ≥ 10000 nM

## COc1cnc(C(=O)Nc2ccc(F)c([C@@]3(C)N=C(N)O[C@H]([C@@H](C)F)[C@@H]3F)c2)cn1 [Compound I-71]
[1]
  ER ratio (Cell: MDR1/LLC-PK1): 0.92
[2]
  IC50: 0.54 nM
Recombinant human BACE1
  IC50: 12 nM
CYP2C9
  IC50: ≥ 20000 nM

## CC(F)(F)[C@H]1OC(N)=N[C@](C)(c2cc(NC(=O)c3cnc(OCC(F)(F)F)cn3)ccc2F)[C@H]1F [Compound I-75]
[1]
  ER ratio (Cell: MDR1/LLC-PK1): 0.8
[2]
  IC50: 8.3 nM
Recombinant human BACE1
  IC50: 15.6 nM
CYP2C9
  IC50: ≥ 10000 nM

## CC#CCOc1cnc(C(=O)Nc2ccc(F)c([C@@]3(C)N=C(N)O[C@H](C(C)(F)F)[C@@H]3F)c2)cn1 [Compound I-76]
[1]
  ER ratio (Cell: MDR1/LLC-PK1): 1
[2]
  IC50: 1.6 nM
Recombinant human BACE1
  IC50: 3.77 nM

## CC(F)(F)[C@H]1OC(N)=N[C@](C)(c2cc(NC(=O)c3cnc(OCC(F)F)cn3)ccc2F)[C@H]1F [Compound I-77]
[1]
  ER ratio (Cell: MDR1/LLC-PK1): 1.2
[2]
  IC50: 79 nM
Recombinant human BACE1
  IC50: 45.8 nM
CYP2C9
  IC50: ≥ 10000 nM

## COCC(F)(F)[C@H]1OC(N)=N[C@](C)(c2cc(NC(=O)c3cnc(OCF)cn3)ccc2F)[C@H]1F [Compound I-79]
[1]
  ER ratio (Cell: MDR1/LLC-PK1): 1.7
[2]
  IC50: 4.5 nM
Recombinant human BACE1
  IC50: 13.2 nM
CYP2C9
  IC50: ≥ 10000 nM

## C[C@]1(c2cc(NC(=O)c3ccc(C#N)cn3)ccc2F)N=C(N)O[C@H](C(F)(F)C2CC2)[C@@H]1F [Compound I-81]
[2]
  IC50: 21 nM
Recombinant human BACE1
  IC50: 16.9 nM
CYP2C9
  IC50: ≥ 10000 nM

## C[C@]1(c2cc(NC(=O)c3cnc(OCF)cn3)ccc2F)N=C(N)O[C@H](C(F)(F)C2CC2)[C@@H]1F [Compound I-82]
[1]
  ER ratio (Cell: MDR1/LLC-PK1): 0.96
[2]
  IC50: 17 nM
Recombinant human BACE1
  IC50: 25.1 nM

## COc1cnc(C(=O)Nc2ccc(F)c([C@@]3(C)N=C(N)O[C@H](C(F)(F)C4CC4)[C@@H]3F)c2)cn1 [Compound I-83]
[2]
  IC50: 14 nM
Recombinant human BACE1
  IC50: 30.3 nM

## C[C@H]1SC(N)=N[C@](C)(c2cc(NC(=O)c3cnc(OCC4CC4)cn3)ccc2F)[C@H]1F [Compound I-85]
[2]
  IC50: 4.8 nM
Recombinant human BACE1
  IC50: 15.4 nM
CYP2D6
  IC50: ≥ 20000 nM

## CO[C@H]1[C@@H](C)SC(N)=N[C@]1(C)c1cc(NC(=O)c2ccc(C#N)cn2)ccc1F [Compound I-88]
[2]
  IC50: 0.13 nM
Recombinant human BACE1
  IC50: 14.4 nM
CYP2C9
  IC50: ≥ 20000 nM
CYP2D6
  IC50: ≥ 20000 nM

## CO[C@H]1[C@@H](C)SC(N)=N[C@]1(C)c1cc(NC(=O)c2ccc(F)cn2)ccc1F [Compound I-89]
[2]
  IC50: 1.5 nM
Recombinant human BACE1
  IC50: 15.1 nM
CYP2C9
  IC50: ≥ 20000 nM
CYP2D6
  IC50: ≥ 20000 nM

## C[C@]1(c2cc(NC(=O)c3ccc(OCF)cn3)ccc2F)N=C(N)O[C@H](C2(F)CC2)[C@@H]1F [Compound I-101]
[1]
  ER ratio (Cell: MDR1/LLC-PK1): 1.1
[2]
  IC50: 11 nM
Recombinant human BACE1
  IC50: 25.3 nM

## C[C@]1(c2cc(NC(=O)c3cnc(OCF)cn3)ccc2F)N=C(N)S[C@H](CO)[C@@H]1F [Compound I-109]
[1]
  ER ratio (Cell: MDR1/LLC-PK1): 8.5
[2]
  IC50: 0.45 nM
Recombinant human BACE1
  IC50: 10.8 nM
